This note sets out measurements from US20240287078A1, “QUINAZOLINE DERIVATIVES USEFUL AS RAS INHIBITORS” (Redx Pharma PLC, priority 2021, published 2024).

For orientation: inhibition means the drop in the measured response relative to a control, in per cent. A word on the IC50: it is the concentration that gives 50% inhibition.

Common to all, as to format: biochemical
The target of assay [1] is T1, KRAS G12D (Homo sapiens, UniProt P01116, G12D).
T1 construct: aa1-188 KRAS WT, HRAS WT, NRAS WT, or KRAS containing the containing the G12D, G13D or Q61H amino acid substitutions
T1 sequence (P01116 1-188 isoform P01116-2 G12D): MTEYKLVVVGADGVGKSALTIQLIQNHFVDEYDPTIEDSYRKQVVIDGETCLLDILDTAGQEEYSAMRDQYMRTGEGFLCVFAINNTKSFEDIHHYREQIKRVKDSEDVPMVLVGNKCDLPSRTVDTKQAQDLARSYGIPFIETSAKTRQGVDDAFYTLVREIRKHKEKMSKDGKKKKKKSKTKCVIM
Description: HTRF nucleotide exchange assay (NEA), KRAS G12D. The following applies: recombinant human KRAS aa1-188 G12D, 2 nM, 60 min compound incubation, EDA-GTP-DY647P1; for inhibition at 10 µM: 1 h. As for the experimental part:
(§1) HTRF Nucleotide Exchange Assay Method
(§2) The capacity of compounds to bind KRAS G12D, other KRAS mutants and wildtype RAS isoforms was quantified using a HTRF nucleotide exchange assay. Recombinant human RAS protein (2 nM; aa1-188 KRAS WT, HRAS WT, NRAS WT, or KRAS containing the containing the G12D, G13D or Q61H amino acid substitutions, or 4 nM KRAS; aa1-188 containing the G12V, G12C, G12A or G12S amino acid substitution, an N-terminal 6×His-tag and leader sequence), and 2 nM Europium-labeled anti-6×His antibody were mixed in assay buffer (10 mM HEPES pH7.3, 150 mM NaCl, 5 mM MgCl2, 0.05% BSA, 0.0025% NP-40 and 100 mM KF) with various concentrations of compound in a 384-well plate and a volume of 5 uL. After a 60-minute incubation at room temperature, Sul of 200 nM EDA-GTP-DY647P1 (diluted in assay buffer) was added to the plate. Following 30-minute incubation at room temperature, time-resolved fluorescence was measured on a PerkinElmer Envision plate reader. DMSO (0.3%) and unlabeled GDP (1 μM) or equivalent tool compound were used to generate the Max and Min assay signals, respectively. Data was analysed using a four-parameter logistic model to calculate IC50 values, with at least two independent replicates were performed for each compound.
In general terms: Time-resolved FRET reads energy transfer from a long-lived donor to a nearby acceptor.

The target in assay [2] is T2, KRAS WT (Homo sapiens, UniProt P01116).
T2 construct: aa1-188 KRAS WT, HRAS WT, NRAS WT
T2 sequence (P01116 1-188 isoform P01116-2): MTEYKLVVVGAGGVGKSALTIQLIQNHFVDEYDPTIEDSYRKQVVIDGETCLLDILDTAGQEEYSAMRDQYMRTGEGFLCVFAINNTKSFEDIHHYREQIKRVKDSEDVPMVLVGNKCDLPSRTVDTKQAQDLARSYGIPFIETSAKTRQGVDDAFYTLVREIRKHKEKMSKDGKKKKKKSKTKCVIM
Description: HTRF nucleotide exchange assay (NEA), KRAS WT. Conditions: recombinant human KRAS WT aa1-188, 2 nM, 60 min compound incubation, EDA-GTP-DY647P1; for inhibition at 10 µM: 1 h. As for the experimental part: as §1, §2

The target in assay [3] is T3, KRAS G13D (Homo sapiens, UniProt P01116, G13D).
T3 construct: aa1-188 KRAS WT, HRAS WT, NRAS WT, or KRAS containing the containing the G12D, G13D or Q61H amino acid substitutions
T3 sequence (P01116 1-188 isoform P01116-2 G13D): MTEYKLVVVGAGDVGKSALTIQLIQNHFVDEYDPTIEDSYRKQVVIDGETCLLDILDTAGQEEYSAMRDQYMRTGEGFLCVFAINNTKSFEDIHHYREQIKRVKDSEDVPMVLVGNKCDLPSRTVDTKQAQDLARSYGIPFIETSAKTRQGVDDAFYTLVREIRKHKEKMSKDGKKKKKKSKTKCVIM
Description: HTRF nucleotide exchange assay (NEA), KRAS G13D. The following applies: 1 h; recombinant human KRAS aa1-188 G13D, 2 nM; 60 min compound incubation, EDA-GTP-DY647P1. As for the experimental part:
as §1
The capacity of compounds to bind KRAS G12D, other KRAS mutants and wildtype RAS isoforms was quantified using a HTRF nucleotide exchange assay. […] After a 60-minute incubation at room temperature, Sul of 200 nM EDA-GTP-DY647P1 (diluted in assay buffer) was added to the plate. Following 30-minute incubation at room temperature, time-resolved fluorescence was measured on a PerkinElmer Envision plate reader. DMSO (0.3%) and unlabeled GDP (1 μM) or equivalent tool compound were used to generate the Max and Min assay signals, respectively. Data was analysed using a four-parameter logistic model to calculate IC50 values, with at least two independent replicates were performed for each compound.

The target in assay [4] is T4, KRAS G12C (Homo sapiens, UniProt P01116, G12C).
T4 construct: 4 nM KRAS; aa1-188 containing the G12V, G12C, G12A or G12S amino acid substitution
T4 sequence (P01116 1-188 isoform P01116-2 G12C): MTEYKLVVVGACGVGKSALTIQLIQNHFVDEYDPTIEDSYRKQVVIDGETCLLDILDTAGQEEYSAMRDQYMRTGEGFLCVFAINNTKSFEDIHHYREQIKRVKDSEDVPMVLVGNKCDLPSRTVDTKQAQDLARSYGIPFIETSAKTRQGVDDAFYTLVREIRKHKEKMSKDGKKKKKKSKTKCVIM
In words: HTRF nucleotide exchange assay (NEA), KRAS G12C. Conditions: recombinant human KRAS aa1-188 G12C, 4 nM; 60 min compound incubation, EDA-GTP-DY647P1. As for the experimental part:
as §1, §2

The target in assay [5] is T5, KRAS G12S (Homo sapiens, UniProt P01116, G12S).
T5 construct: 4 nM KRAS; aa1-188 containing the G12V, G12C, G12A or G12S amino acid substitution
T5 sequence (P01116 1-188 isoform P01116-2 G12S): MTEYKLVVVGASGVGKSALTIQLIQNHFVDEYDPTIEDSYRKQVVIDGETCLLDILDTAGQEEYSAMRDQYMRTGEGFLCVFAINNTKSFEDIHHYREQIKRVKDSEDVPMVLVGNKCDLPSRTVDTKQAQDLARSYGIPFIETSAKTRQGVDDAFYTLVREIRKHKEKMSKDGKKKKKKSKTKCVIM
In words: HTRF nucleotide exchange assay (NEA), KRAS G12S. The following applies: 1 h; recombinant human KRAS aa1-188 G12S, 4 nM; 60 min compound incubation, EDA-GTP-DY647P1. As for the experimental part: as §1, §2

Turning to `Cc1c(-c2n[nH]c3ccccc23)ccc2c(N3CCCOCC3)nc(OCC34CCCN3CCC4)nc12` [Example 20, 4-[2-(1,2,3,5,6,7-hexahydropyrrolizin-8-ylmethoxy)-7-(1H-indazol-3-yl)-8-methyl-quinazolin-4-yl]-1,4-oxazepane], the inhibition at 10 µM in assay [1] and in assay [2] was 10 to 49% each time.
For `COc1ccc(Cl)cc1-c1ccc2c(N3CCCOCC3)nc(OCC34CCCN3CCC4)nc2c1C` [Example 16, 4-[7-(5-chloro-2-methoxy-phenyl)-2-(1,2,3,5,6,7-hexahydropyrrolizin-8-ylmethoxy)-8-methyl-quinazolin-4-yl]-1,4-oxazepane], the inhibition at 10 µM in assay [1] lay within 10 to 49%. Besides, in assay [2], the IC50 fell in the range of 0.1 to 10 µM.
On to `Cc1c(-c2nc(N)cc3ccccc23)ccc2c(N3CCCOCC3)nc(OCC34CCCN3CCC4)nc12` [Example 23, 1-[2-(1,2,3,5,6,7-hexahydropyrrolizin-8-ylmethoxy)-8-methyl-4-(1,4-oxazepan-4-yl)quinazolin-7-yl]isoquinolin-3-amine], for which the inhibition at 10 µM in assay [1] and in assay [2] was 10 to 49% throughout.
For `Cc1c(-c2cc(O)cc3ccccc23)ccc2c(N3CCOCCC3=O)nc(OCC34CCCN3CCC4)nc12` [Example 4, 4-[2-(1,2,3,5,6,7-hexahydropyrrolizin-8-ylmethoxy)-7-(3-hydroxy-1-naphthyl)-8-methyl-quinazolin-4-yl]-1,4-oxazepan-5-one], the inhibition at 10 µM in assay [3], in assay [1] and in assay [2] was 10 to 49% in each case.
Turning to `Cc1ccc2[nH]ncc2c1-c1ccc2c(N3CCCOCC3)nc(OCC34CCCN3CCC4)nc2c1C` [Example 18, 4-[2-(1,2,3,5,6,7-hexahydropyrrolizin-8-ylmethoxy)-8-methyl-7-(5-methyl-1H-indazol-4-yl)quinazolin-4-yl]-1,4-oxazepane], the inhibition at 10 µM in assay [1] and in assay [2] was 10 to 49% throughout.
Turning to `Cc1c(-c2cccc3cnn(C)c23)ccc2c(N3CCCOCC3)nc(OCC34CCCN3CCC4)nc12` [Example 21, 4-[2-(1,2,3,5,6,7-hexahydropyrrolizin-8-ylmethoxy)-8-methyl-7-(1-methylindazol-7-yl)quinazolin-4-yl]-1,4-oxazepane], the inhibition at 10 µM in assay [1] and in assay [2] was 10 to 49% throughout.
On to `Cc1c(-c2cc(O)cc3ccccc23)ccc2c(N3CC4CCC(C3)N4)nc(OCC34CCCN3CCC4)nc12` [Example 1, 4-[4-(3,8-diazabicyclo[3.2.1]octan-3-yl)-2-(1,2,3,5,6,7-hexahydropyrrolizin-8-ylmethoxy)-8-methyl-quinazolin-7-yl]naphthalen-2-ol], for which the inhibition at 10 µM in assay [3] was 10 to 49%. Moreover, the IC50 in assay [4] was 0.1 to 10 µM; in assay [1], less than 0.01 µM; in assay [2], 0.1 to 10 µM.
On to `Cc1c(-c2cccc3[nH]ncc23)ccc2c(N3CCCOCC3)nc(OCC34CCCN3CCC4)nc12` [Example 19, 4-[2-(1,2,3,5,6,7-hexahydropyrrolizin-8-ylmethoxy)-7-(1H-indazol-4-yl)-8-methyl-quinazolin-4-yl]-1,4-oxazepane], for which the inhibition at 10 µM in assay [1] and in assay [2] was 10 to 49% throughout.
Consider `Cc1nc(-c2ccc3c(N4CCCOCC4)nc(OCC45CCCN4CCC5)nc3c2C)c2ccccc2n1` [Example 14, 4-[2-(1,2,3,5,6,7-hexahydropyrrolizin-8-ylmethoxy)-8-methyl-7-(2-methylquinazolin-4-yl)quinazolin-4-yl]-1,4-oxazepane], for which the inhibition at 10 µM in assay [1] and in assay [2] was 10 to 49% throughout.
For the molecule `Cc1c(-c2cc(O)cc3ccccc23)ccc2c(N3CCn4cncc4C3)nc(OCC34CCCN3CCC4)nc12` [Example 8, 4-[4-(6,8-dihydro-5H-imidazo[1,5-a]pyrazin-7-yl)-2-(1,2,3,5,6,7-hexahydropyrrolizin-8-ylmethoxy)-8-methyl-quinazolin-7-yl]naphthalen-2-ol], the inhibition at 10 µM in assay [1], in assay [2] and in assay [5] was 10 to 49% in each case.
In the case of `Cc1c(-c2cc(O)cc3ccccc23)ccc2c(N3CCn4ccnc4C3)nc(OCC34CCCN3CCC4)nc12` [Example 9, 4-[4-(6,8-dihydro-5H-imidazo[1,2-a]pyrazin-7-yl)-2-(1,2,3,5,6,7-hexahydropyrrolizin-8-ylmethoxy)-8-methyl-quinazolin-7-yl]naphthalen-2-ol], the inhibition at 10 µM in assay [1], in assay [2] and in assay [5] was 10 to 49% each time.
Consider `Cc1c(-c2cccc3sc(N)nc23)ccc2c(N3CCCOCC3)nc(OCC34CCCN3CCC4)nc12` [Example 13, 4-[2-(1,2,3,5,6,7-hexahydropyrrolizin-8-ylmethoxy)-8-methyl-4-(1,4-oxazepan-4yl)quinazolin-7-yl]-1,3-benzothiazol-2-amine], for which the IC50 in assay [1] and in assay [2] was 0.1 to 10 µM throughout.
With `Cc1c(-c2cc(O)cc3ccccc23)ccc2c(N3CCn4nccc4C3)nc(OCC34CCCN3CCC4)nc12` [Example 7], the inhibition at 10 µM in assay [1], in assay [2] and in assay [5] was 10 to 49% in each case.
For `Cc1c(-c2cc(O)cc3ccccc23)ccc2c(N3CCCOCC3=O)nc(OCC34CCCN3CCC4)nc12` [Example 5, 4-[2-(1,2,3,5,6,7-hexahydropyrrolizin-8-ylmethoxy)-7-(3-hydroxy-1-naphthyl)-8-methyl-quinazolin-4-yl]-1,4-oxazepan-3-one], the inhibition at 10 µM in assay [3], in assay [1] and in assay [2] was 10 to 49% each time.
As to `Cc1c(-c2ncnc3ccc(C#N)cc23)ccc2c(N3CCCOCC3)nc(OCC34CCCN3CCC4)nc12` [Example 12, 4-[2-(1,2,3,5,6,7-hexahydropyrrolizin-8-ylmethoxy)-8-methyl-4-(1,4-oxazepan-4-yl)quinazolin-7-yl]quinazoline-6-carbonitrile], the inhibition at 10 µM in assay [1] and in assay [2] was 10 to 49% each time.
With `COc1ccc(C(F)(F)F)cc1-c1ccc2c(N3CCCOCC3)nc(OCC34CCCN3CCC4)nc2c1C` [Example 15, 4-[2-(1,2,3,5,6,7-hexahydropyrrolizin-8-ylmethoxy)-7-[2-methoxy-5-(trifluoromethyl)phenyl]-8-methyl-quinazolin-4-yl]-1,4-oxazepane], the inhibition at 10 µM in assay [1] and in assay [2] was 10 to 49% in each case.
As to `Cc1c(-c2c[nH]nc2C(F)(F)F)ccc2c(N3CCCOCC3)nc(OCC34CCCN3CCC4)nc12` [Example 17, 4-[2-(1,2,3,5,6,7-hexahydropyrrolizin-8-ylmethoxy)-8-methyl-7-[3-(trifluoromethyl)-1H-pyrazol-4-yl]quinazolin-4-yl]-1,4-oxazepane], the inhibition at 10 µM in assay [1] and in assay [2] was 10 to 49% throughout.
Take `Cc1c(-c2cc(O)cc3ccccc23)ccc2c(N3CCc4cn[nH]c4C3)nc(OCC34CCCN3CCC4)nc12` [Example 11, 4-[2-(1,2,3,5,6,7-hexahydropyrrolizin-8-ylmethoxy)-8-methyl-4-(1,4,5,7-tetrahydropyrazolo[3,4-c]pyridin-6-yl)quinazolin-7-yl]naphthalen-2-ol]: the inhibition at 10 µM in assay [1] and in assay [2] was 10 to 49% each time.
For `Cc1c(-c2cc(O)cc3ccccc23)ccc2c(N3CCc4[nH]ncc4C3)nc(OCC34CCCN3CCC4)nc12` [Example 10, 4-[2-(1,2,3,5,6,7-hexahydropyrrolizin-8-ylmethoxy)-8-methyl-4-(1,4,6,7-tetrahydropyrazolo[4,3-c]pyridin-5-yl)quinazolin-7-yl]naphthalen-2-ol], the inhibition at 10 µM in assay [1] and in assay [2] was 10 to 49% in each case.
